Source: ChEMBL document CHEMBL3603768, “Identification of 2-[2-(4-tert-butylphenyl)ethyl]-N-(4-fluorophenyl)-1,2,3,4-tetrahydroisoquinoline-6-sulfonamide (29) as an orally available MGAT2 inhibitor” (Bioorg Med Chem, 2015)
≈ marks a conversion by molar mass, not a printed value.

Columns and labels:
[1] = Drug metabolism in mouse liver microsomes incubated for 15 mins; format: ADME; details: read-out: Drug metabolism
[2] = target: 2-acylglycerol O-acyltransferase 2 (Homo sapiens, UniProt Q3SYC2); assay: Inhibition of human recombinant MGAT2 assessed as reduction in enzyme-mediated deacylation of oleoyl-CoA incubated for 20 mins by CPM dye based fluorescence assay
2-acylglycerol O-acyltransferase 2 (Homo sapiens, UniProt Q3SYC2), sequence (Q3SYC2 whole entry): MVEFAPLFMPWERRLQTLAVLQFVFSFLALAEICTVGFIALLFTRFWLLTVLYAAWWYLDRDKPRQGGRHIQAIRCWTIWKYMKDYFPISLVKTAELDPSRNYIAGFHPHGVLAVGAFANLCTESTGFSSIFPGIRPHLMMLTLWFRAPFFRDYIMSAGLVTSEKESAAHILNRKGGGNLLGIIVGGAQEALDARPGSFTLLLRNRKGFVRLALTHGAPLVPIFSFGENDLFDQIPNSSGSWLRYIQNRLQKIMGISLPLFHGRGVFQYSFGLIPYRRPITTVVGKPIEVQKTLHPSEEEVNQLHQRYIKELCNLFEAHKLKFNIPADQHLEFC

[3] = Drug metabolism in human liver microsomes incubated for 15 mins; format: ADME; details: read-out: Drug metabolism
[4] = target: 2-acylglycerol O-acyltransferase 2 (Mus musculus, UniProt Q80W94); assay: Inhibition of mouse recombinant MGAT2 assessed as reduction in enzyme-mediated deacylation of oleoyl-CoA incubated for 20 mins by CPM dye based fluorescence assay
2-acylglycerol O-acyltransferase 2 (Mus musculus, UniProt Q80W94), sequence (Q80W94 whole entry): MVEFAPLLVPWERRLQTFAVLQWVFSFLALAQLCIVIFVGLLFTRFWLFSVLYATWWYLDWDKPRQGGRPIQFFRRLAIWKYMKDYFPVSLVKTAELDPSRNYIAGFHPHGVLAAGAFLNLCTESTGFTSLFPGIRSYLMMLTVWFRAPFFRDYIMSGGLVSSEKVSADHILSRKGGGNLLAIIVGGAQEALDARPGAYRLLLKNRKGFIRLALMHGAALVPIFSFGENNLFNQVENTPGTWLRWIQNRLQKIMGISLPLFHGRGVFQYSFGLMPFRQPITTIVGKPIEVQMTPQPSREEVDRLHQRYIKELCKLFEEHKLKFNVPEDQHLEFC

[5] = Solubility in water; format: physicochemical
[6] = AUC (0 to 4 hrs) in mouse at 100 mg/kg, po; format: ADME, organism-based; parameters: dose 100 mg/kg, time < 4 hr, route oral; details: in vivo
[7] = Solubility in FeSSIF solution at pH 5.0; format: physicochemical
[8] = Cmax in mouse at 100 mg/kg, po; format: ADME, organism-based; parameters: dose 100 mg/kg, route oral; details: in vivo
Mus musculus = assay: Inhibition of fat absorption in mouse assessed as reduction in plasma triglyceride AUC (0 to 4 hrs) level at 100 mg/kg, po by oral lipid tolerance test; format: functional

SMILES	IC50 [2]	solubility [5]	also measured
CC(C)(C)c1ccc(NC(=O)N2Cc3ccc(S(=O)(=O)Nc4ccc(F)cc4F)cc3C2)cc1	0.685 µM		
CC(C)(C)c1ccc(NC(=O)N2Cc3ccc(S(=O)(=O)Nc4ccc(F)cc4Cl)cc3C2)cc1	1.11 µM		
CCc1cc(F)ccc1NS(=O)(=O)c1ccc2c(c1)CN(C(=O)Nc1ccc(C(C)(C)C)cc1)C2	2.49 µM		
COc1ccc(NS(=O)(=O)c2ccc3c(c2)CN(C(=O)Nc2ccc(C(C)(C)C)cc2)C3)c(OC)c1	3.16 µM		
CCOc1ccc(NS(=O)(=O)c2ccc3c(c2)CN(C(=O)Nc2ccc(C(C)(C)C)cc2)C3)c(F)c1	5.2 µM		
CC(C)(C)c1ccc(CC(=O)N2Cc3ccc(S(=O)(=O)Nc4ccc(F)cc4)cc3C2)cc1	8.07 µM	< 0.11 µg/mL	
CC(C)(C)c1ccc(CCN2Cc3ccc(S(=O)(=O)Nc4ccc(F)cc4)cc3C2)cc1	2.12 µM	270 µg/mL (≈ 597 µM)	
CC(C)(C)c1ccc(CCN2CCc3ccc(S(=O)(=O)Nc4ccc(F)cc4)cc3C2)cc1	3.06 µM		
CC(C)(C)c1ccc(CCN2CCc3cc(S(=O)(=O)Nc4ccc(F)cc4)ccc3C2)cc1	1.52 µM	641 µg/mL (≈ 1370 µM)	metabolised at 0.25 h [1]: 47.8%; AUC(0-t) at 4 h [6]: 1.81 µg·h/mL; solubility [7]: 385 µg/mL (≈ 825 µM); inhibition in vivo at 100 mg/kg (Mus musculus): 57%; metabolised at 0.25 h [3]: 14.6%; IC50 [4]: 1.17 µM; Cmax [8]: 1.2 µg/mL

Second part, led by results:

IC50 [2]	solubility [5]	SMILES	also measured
0.594 µM	< 0.07 µg/mL	CC(C)(C)c1ccc(NC(=O)N2Cc3ccc(S(=O)(=O)Nc4ccc(F)cc4)cc3C2)cc1	metabolised at 0.25 h [1]: 70.9%; metabolised at 0.25 h [3]: 12.3%; IC50 [4]: 1.31 µM
	0.607 µg/mL (≈ 1.22 µM)	COc1cc(F)ccc1NS(=O)(=O)c1ccc2c(c1)CN(C(=O)Nc1ccc(C(C)(C)C)cc1)C2	metabolised at 0.25 h [1]: 60.6%; AUC(0-t) at 4 h [6]: 0.134 µg·h/mL; solubility [7]: 28.3 µg/mL (≈ 56.9 µM); metabolised at 0.25 h [3]: 43.1%; Cmax [8]: 0.0943 µg/mL
0.733 µM		CCOc1cc(F)ccc1NS(=O)(=O)c1ccc2c(c1)CN(C(=O)Nc1ccc(C(C)(C)C)cc1)C2	
2.3 µM		CCCOc1cc(F)ccc1NS(=O)(=O)c1ccc2c(c1)CN(C(=O)Nc1ccc(C(C)(C)C)cc1)C2	
	< 0.06 µg/mL	COc1ccc(NS(=O)(=O)c2ccc3c(c2)CN(C(=O)Nc2ccc(C(C)(C)C)cc2)C3)c(F)c1	metabolised at 0.25 h [1]: 51.1%; solubility [7]: 0.783 µg/mL (≈ 1.57 µM); metabolised at 0.25 h [3]: 20.6%
1.98 µM		CCCOc1ccc(NS(=O)(=O)c2ccc3c(c2)CN(C(=O)Nc2ccc(C(C)(C)C)cc2)C3)c(F)c1	
0.547 µM		CCCCOc1ccc(NS(=O)(=O)c2ccc3c(c2)CN(C(=O)Nc2ccc(C(C)(C)C)cc2)C3)c(F)c1	
	< 0.06 µg/mL	CCCCCOc1ccc(NS(=O)(=O)c2ccc3c(c2)CN(C(=O)Nc2ccc(C(C)(C)C)cc2)C3)c(F)c1	metabolised at 0.25 h [1]: 12.6%; solubility [7]: 10.2 µg/mL (≈ 18.4 µM); metabolised at 0.25 h [3]: 0.1%
